# Test results: patent US8507477B2, “3- and 6-quinolines with N-attached heterocyclic CGRP receptor antagonists” (Merck, Sharp & Dohme, Corp., priority 2008, dated 2013)
# Target: recombinant human CL receptor/RAMP1 (Homo sapiens (Human), UniProt O60894+Q16602)
# Experiment: Recombinant receptor binding assay (125I-hCGRP displacement, membranes of HEK 293 cells)
# Details: membranes of HEK 293 cells expressing human CL receptor/RAMP1
# Experimental: RECOMBINANT RECEPTOR: Human CL receptor (Genbank accession number L76380) was subcloned into the expression vector pIREShyg2 (BD Biosciences Clontech) as a 5′NheI and 3′PmeI fragment. Human RAMP1 (Genbank accession number AJ001014) was subcloned into the expression vector pIRESpuro2 (BD Biosciences Clontech) as a 5′NheI and 3′NotI fragment. HEK 293 cells (human embryonic kidney cells; ATCC #CRL-1573) were cultured in DMEM with 4.5 g/L glucose, 1 mM sodium pyruvate and 2 mM glutamine supplemented with 10% fetal bovine serum (FBS), 100 units/mL penicillin and 100 μg/mL streptomycin, and maintained at 37° C. and 95% humidity. Cells were subcultured by treatment with 0.25% trypsin with 0.1% EDTA in HBSS. Stable cell line generation was accomplished by co-transfecting 10 μg of DNA with 30 μg Lipofectamine 2000 (Invitrogen) in 75 cm^2 flasks. CL receptor and RAMP1 expression constructs were co-transfected in equal amounts. Twenty-four hours after transfection the cells were diluted and selective medium (growth medium+300 μg/mL hygromycin and 1 μg/mL puromycin) was added the following day. A clonal cell line was generated by single cell deposition utilizing a FACS Vantage SE (Becton Dickinson). Growth medium was adjusted to 150 μg/mL hygromycin and 0.5 μg/mL puromycin for cell propagation.
# RECOMBINANT RECEPTOR BINDING ASSAY: Cells expressing recombinant human CL receptor/RAMP1 were washed with PBS and harvested in harvest buffer containing 50 mM HEPES, 1 mM EDTA and Complete protease inhibitors (Roche). The cell suspension was disrupted with a laboratory homogenizer and centrifuged at 48,000 g to isolate membranes. The pellets were resuspended in harvest buffer plus 250 mM sucrose and stored at −70° C. For binding assays, 20 μg of membranes were incubated in 1 ml binding buffer (10 mM HEPES, pH 7.4, 5 mM MgCl2, and 0.2% BSA) for 3 hours at room temperature containing […] ^125I-hCGRP (GE Healthcare) and antagonist. The assay was terminated by filtration through 96-well GFB glass fiber filter plates (PerkinElmer) that had been blocked with 0.05% polyethyleneimine. The filters were washed 3 times with ice-cold assay buffer (10 mM HEPES, pH 7.4 and 5 mM MgCl2). Scintillation fluid was added and the plates were counted on a Topcount (Packard). Non-specific binding was determined and the data analysis was carried out with the apparent dissociation constant (Ki) determined by using a non-linear least squares fitting the bound CPM data to the equation below:
# [formula] Where Y is observed CPM bound, Ymax is total bound counts, Ymin is non specific bound counts, (Ymax−Ymin) is specific bound counts, % Imax is the maximum percent inhibition, % I min is the minimum percent inhibition, radiolabel is the probe, and the Kd is the apparent dissociation constant for the radioligand for the receptor as determined by Hot saturation experiments.
# Sequence of recombinant human CL receptor/RAMP1 (Q16602 23-461): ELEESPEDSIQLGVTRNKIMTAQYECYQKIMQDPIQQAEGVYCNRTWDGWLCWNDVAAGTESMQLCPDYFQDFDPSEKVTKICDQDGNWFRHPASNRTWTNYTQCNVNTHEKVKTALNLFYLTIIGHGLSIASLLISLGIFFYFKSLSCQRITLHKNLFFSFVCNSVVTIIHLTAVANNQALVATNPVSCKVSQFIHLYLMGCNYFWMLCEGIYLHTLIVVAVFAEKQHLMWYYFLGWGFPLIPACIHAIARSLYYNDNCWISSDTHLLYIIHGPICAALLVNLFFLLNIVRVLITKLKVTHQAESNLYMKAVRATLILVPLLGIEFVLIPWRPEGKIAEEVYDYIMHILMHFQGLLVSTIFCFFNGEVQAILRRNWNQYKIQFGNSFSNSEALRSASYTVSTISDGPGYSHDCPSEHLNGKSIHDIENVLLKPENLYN
# Sequence of recombinant human CL receptor/RAMP1 (O60894 27-148): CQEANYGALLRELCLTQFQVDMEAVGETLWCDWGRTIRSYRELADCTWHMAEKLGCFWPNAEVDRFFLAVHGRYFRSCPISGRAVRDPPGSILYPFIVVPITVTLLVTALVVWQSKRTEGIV
row,Compound,Ki [nM]
1,O=C1N(Cc2cnc3cc4c(cc3c2)C[C@@]2(C4)C(=O)Nc3ncccc32)[C@H](c2cc(F)cc(F)c2)CCC12CCCC2 [Example 9],0.77
2,O=C1N(Cc2cnc3cc4c(cc3c2)C[C@@]2(C4)C(=O)Nc3ncccc32)C(c2ccccc2Cl)=NC12CCCC2 [Example 10],1.3
3,O=C1N(Cc2cnc3cc4c(cc3c2)C[C@@]2(C4)C(=O)Nc3ncccc32)[C@H](c2cc(F)cc(F)c2)CCNC12CCCC2 [Example 15],0.49
4,O=C1N(Cc2ccc3nc4c(cc3c2)C[C@@]2(C4)C(=O)Nc3ncccc32)[C@H](c2cc(F)cc(F)c2)CCNC12CCCC2 [Example 16],0.89
5,O=C1NCCN(Cc2cnc3cc4c(cc3c2)C[C@@]2(C4)C(=O)Nc3ncccc32)C1c1ccc(F)cc1 (stereo partly shown) [Example 17],57

# Stronger by Ki, values ahead:
row,Ki [nM],Compound
1,0.057,CC(C)N1C(=O)N(Cc2cnc3cc4c(cc3c2)C[C@@]2(C4)C(=O)Nc3ncccc32)C2(CCCc3ccccc32)C1=O (stereo partly shown) [Example 5]
2,0.34,CC(C)N1C(=O)N(Cc2cnc3cc4c(cc3c2)C[C@@]2(C4)C(=O)Nc3ncccc32)C2(CCCCCC2)C1=O [Example 6]
3,0.14,O=C1N(Cc2cnc3cc4c(cc3c2)C[C@@]2(C4)C(=O)Nc3ncccc32)[C@H](c2cc(F)cc(F)c2)CNC12CCCC2 [Example 8]
4,0.28,CC(C)N1C(=O)N(Cc2cnc3cc4c(cc3c2)C[C@@]2(C4)C(=O)Nc3ncccc32)C(C)(c2ccccc2)C1=O (stereo partly shown) [Example 12]
5,0.062,CN1C[C@@](C)(c2cc(F)cc(F)c2)N(Cc2cnc3cc4c(cc3c2)C[C@@]2(C4)C(=O)Nc3ncccc32)C(=O)C12CCCC2 [Example 13]
